The values that follow come from a melting point compilation (Tetko et al.; mined from patent text by program, amines drawn as free bases though some values may be those of a salt).

In the case of `N[C@@H]1C[C@H](C2CCCCC2)c2ccccc2NC1=O` (relative stereo), the melting point is 96 to 98 °C.

The molecule `Cc1ccc2c(c1)O[C@@H](CN1CCC(CNC(=O)c3cccnc3N)CC1)CO2` yielded a melting point of 143 to 146 °C.

Molecule `N#Cc1cc(-c2ccc(Cl)c(Cl)c2)[nH]c1Br` yielded a melting point above 200 °C.

Take `O=c1cc(C(F)(F)F)[nH]c(=O)n1-c1ccc(Cl)cc1F`: the melting point is 189 °C.

With `COc1ccc2c(c1)C13CCN(C)C(C2)C1C(C)C(C)C(=O)C3` (configuration not stated), the melting point fell in the range of 101 to 102 °C.

`COc1cc2c(cc1OC)CN(CCCOc1ccc(NC(=O)c3cccc4c(=O)c5cccc(C)c5[nH]c34)c(C)c1)CC2` came in with a melting point of 160 °C.

With `CC(C)(C)OC(=O)N1CC2CN(c3nc(C4=NOC(c5c(F)cccc5F)C4)cs3)CC2C1` (configuration not stated), the melting point was in the range of 78.9 to 80.2 °C.

In turn, `CONC(=O)c1cc(C)c(C(c2cc(F)ccc2F)S(=O)(=O)c2ccc(F)cc2)cn1` (configuration not stated) registered a melting point of 231 to 234 °C.

Molecule `C1=CC(Nc2ccccc2)C(=Nc2ccccc2)N1` (configuration not stated) registered a melting point of 137 to 139 °C.

The molecule `CC(=O)C(=[N+]=[N-])C(=O)CCCCCCCCCc1ccccc1` yielded a melting point of 29 to 31 °C.

In turn, `CN1CCC(O)(C2CC(c3ccc(-c4ccc(N5C[C@H](Cn6ccnn6)OC5=O)cc4F)cn3)=NO2)CC1` (some centres not stated) showed a melting point of 73 °C.

Molecule `Cc1cc2c(cc1C)C(O)(c1ccccc1Cl)C(=O)N2` (configuration not stated) showed a melting point of 251 to 253 °C.

As for `Cc1cc(C#N)c(N)cc1Cl`, the melting point stood at 180 °C.

`Cc1cc(-c2cc(C(F)(F)F)n3ncc(-c4nc(-c5ccnc(N)c5)no4)c3n2)ccc1C(F)(F)F` gave a melting point of 245 °C.

On to `CCCCCOc1ccc2cc(CCC(N)(CO)CO)ccc2c1`, for which the melting point is 106 to 109 °C.

For `COC(=O)C(C)(C)OCC#Cc1cc(C(F)(F)F)ccc1NS(=O)(=O)c1ccc2nc(NC(C)=O)sc2c1`, the melting point is 104 to 106 °C.

On to `O=c1oc(-c2cccc(S(=O)C(F)(F)F)c2)nc2ccccc12` (configuration not stated), for which the melting point fell in the range of 106 to 108 °C.

Turning to `Cc1cc(OC2SCC(O)C(O)C2O)cc(C)c1-c1ccncc1` (configuration not stated), the melting point is 106 to 107 °C.

Regarding `CC1=NNC(=O)CC1c1ccc(OC2CCN(C(=O)OC(C)(C)C)CC2)cc1` (configuration not stated), the melting point fell in the range of 165 to 167 °C.

Turning to `Cc1cccc(Cl)c1CCCOc1oc(-n2ccnc2C)nc1-c1ccc(Cl)cc1`, the melting point was 115 to 116 °C.

As to `CCOC(=O)CN(CC=CC(=O)Nc1cc2c(Nc3ccc(F)c(Cl)c3)ncnc2cc1OCC1CC1)CCOC(C)=O`, the melting point lay within 90 to 92 °C.

As to `CN1CCC(C2(O)c3ccccc3C=Cn3ccnc32)CC1` (configuration not stated), the melting point came out at 155 °C.

As for `CN1CCN(c2cccc3ccc(OCc4cccc(Cl)c4)cc23)CC1`, the melting point was in the range of 67.5 to 68 °C.

Take `N#Cc1ccc(CC2CCN(C(=O)c3ccc(Cl)cc3)CC2)cc1`: the melting point is 137 to 139 °C.

In turn, `Cc1nc(O)c([N+](=O)[O-])c(Cl)n1` registered a melting point of 194 to 196 °C.

`Cc1cc(C)c(S(=O)(=O)NC(COc2ccccc2)C(F)(F)F)c(C)c1` (configuration not stated) came in with a melting point of 89 to 91 °C.

`CCOC(=O)c1cn(-c2ccncc2F)c2nc(Cl)c(F)cc2c1=O`: the melting point was 226 °C.

For `CC1(C)Oc2ccc(S(=O)(=O)c3ccc(C#N)cc3)cc2C(O)C1Br` (configuration not stated), the melting point is 157 to 158 °C.

Turning to `CN1C(=O)CN=C(c2ccccc2F)c2c1cc(Cl)c(NC(=O)C(F)(F)F)c2Cl`, the melting point lay in the range of 238 to 240 °C.

The molecule `CCN1CCC=C(c2csc(N)n2)C1` gave a melting point of 116 to 120 °C.

`COC1C=C(C)C(=O)CC(C)(C)C1OC(=O)c1ccccc1C(=O)O` (configuration not stated) registered a melting point of 158 °C.

`CN(Cc1nc(-c2cc(C(C)(C)C)c(O)c(C(C)(C)C)c2)cs1)C(=O)OC(C)(C)C` returned a melting point of 126 to 127 °C.

As to `CC(=O)NC(=S)N1CCSC1c1ccccc1OCCN1CC=C(c2cccc(F)c2)CC1` (configuration not stated), the melting point was in the range of 135 to 136 °C.

For `CCC[C@H]1CC[C@H]([C@H]2CC[C@H](C3=CC(=O)CCC3)CC2)CC1`, the melting point is 96 °C.

The molecule `CCc1c(C(=O)C(=O)NC2=CC(=O)OC2)c2ccccc2n1Cc1ccc(Cl)cc1` displayed a melting point of 192 to 195 °C.

In turn, `NS(=O)(=O)c1cc2cc(N3CCOCC3)ccc2s1` returned a melting point of 155 to 156 °C.

For `Oc1cc(CBr)c2oc(-c3ccc(O)c(F)c3)cc2c1`, the melting point lay within 269 to 271 °C.

Molecule `Fc1ccc2scc(Br)c2c1` came in with a melting point of 79 to 80 °C.

The molecule `Cc1ccc(Nc2ncccc2O)cc1` registered a melting point of 134 to 135 °C.

Molecule `CC(Cc1c[nH]c2ccccc12)(NC(=O)OC1C2CC3CC(C2)CC1C3)C(=O)O` (configuration not stated) gave a melting point of 210 to 215 °C.

Regarding `Cc1ccc(S(=O)(=O)ON=C(CCN2C(=O)c3ccccc3C2=O)n2nc(C(C)(C)C)cc2N)cc1`, the melting point lay within 80 to 82 °C.

`CC(C)(C)C(=O)Oc1ccc(NCC2CCc3ccccc3C2)cc1` (configuration not stated) gave a melting point of 75 to 77 °C.

`COc1ccc(N2CCN(c3c(C)c(C)c4c(c3C)C(O)(c3ccc(C(F)(F)F)cc3)C(C)(C)O4)CC2)cc1` (configuration not stated) showed a melting point of 181 to 183 °C.

The molecule `O=C(O)c1cc(S)n2ncnc2n1` returned a melting point of 230 to 232 °C.

In the case of `COC(=O)c1ccc(Cl)cc1N(C)S(C)(=O)=O`, the melting point lay in the range of 73 to 75 °C.

Regarding `CCCn1c(=O)c2[nH]c(/C=C/c3ccc(Cl)c(Cl)c3)nc2n(CCC)c1=O`, the melting point lay within 195 to 202 °C.

For `CC(=O)c1ccc(S(=O)(=O)NCc2cccnc2)cc1`, the melting point lay in the range of 143 to 144 °C.

The molecule `N#CCc1ccc(N)c(Cl)c1` displayed a melting point of 77 °C.

In turn, `CCCCCCCCCC(N)CCCCCCCCC(N)CCCCCCCCC` (configuration not stated) returned a melting point of 33 to 37 °C.

The molecule `CCOC(=O)COc1ccc2cc(Br)ccc2c1Br` had a melting point of 104 to 106 °C.

`Clc1cc(Nn2cccc2)ncn1` returned a melting point of 196 to 198 °C.

For `Cc1ccccc1-n1ccnc1SCCCO`, the melting point lay in the range of 47 to 48 °C.

Regarding `Cc1ccccc1-c1cc(C#N)cc2c1OC(CN)C2` (configuration not stated), the melting point fell in the range of 127 to 129 °C.

Molecule `O=C(O)Cc1nsc(NC(=O)c2ccccc2)n1` gave a melting point of 173 to 175 °C.

Take `CN(C)c1cccc(CC(=O)Cc2cccc(Cl)c2)c1`: the melting point is 58 to 60 °C.

With `Cc1ccccc1C1CCN(C2CCCCC2O)CC1` (single isomer, unassigned; (-)), the melting point was 116 to 118 °C.

`CCOC(Cc1ccc(OCCn2ccc3ccc(C(=O)C4CC4)nc32)cc1)C(=O)OC` (configuration not stated) displayed a melting point of 159 °C.

Consider `CCn1ncc(-c2ccc3c(c2)c(C2CCN(CCN4CCNC4=O)CC2)cn3-c2ccc(F)cc2)n1`, for which the melting point is 173 to 175 °C.

The molecule `Cc1ccc(-c2nn(C(C)(C)C(=O)N(C)C)cc2C)c(C)c1` yielded a melting point of 110 to 112 °C.

With `COc1ccc(C(=O)Nc2ccccc2)c(NS(=O)(=O)c2ccc([N+](=O)[O-])cc2)c1`, the melting point fell in the range of 224 to 227 °C.

In the case of `CC(=O)N1OCC(=S)NC1c1ccccc1` (configuration not stated), the melting point was 172 to 174 °C.

As to `CCc1nn2c(I)cccc2c1N(CC)CCF`, the melting point was in the range of 51.2 to 53.6 °C.

Regarding `CCOCCc1cc(OC)c(-c2ccc(C[C@H](NC(=O)c3c(F)cccc3F)C(=O)O)cc2)c(OC)c1`, the melting point was in the range of 63 to 70 °C.

Consider `CCCOc1ccc(C(CC(=O)O)N2C(=O)c3ccccc3C2=O)cc1` (configuration not stated), for which the melting point is 142 to 144 °C.

`CC(C)c1ccc(-n2nc(Cl)cc2-c2ccc(S(C)(=O)=O)cc2)cc1` had a melting point of 146 to 148 °C.

The molecule `COc1ccc(OC)c(S(=O)(=O)n2c(COC(C)(C)C(=O)O)cc3cc(Cl)ccc32)c1` displayed a melting point of 156 to 158 °C.

For `C[C@@H]1O[C@](C#CC2CC2)(C(F)(F)F)c2cc(F)ccc2NC1=O` (relative stereo), the melting point lay in the range of 184 to 185 °C.

Molecule `CC(=O)c1ccc(C(=O)OC(C)(C)C)cc1` returned a melting point of 57.5 to 58.8 °C.

For the molecule `CC(NC(=O)c1sc2ccc(C(F)(F)F)cc2c1O)C(O)(c1ccccc1)c1ccccc1` (configuration not stated), the melting point was 129 to 130 °C.

For `CCCCCCCCCCCCCCCc1ccc(-c2nc(-c3ccccc3Cl)nn2C)cc1`, the melting point lay within 62 to 65 °C.

With `COc1cc(COc2nn(-c3ccccc3)cc2/C=C/c2nc(N3CCOCC3)sc2C)ccc1OCc1nc(-c2ccc(CC(=O)O)cc2)oc1C`, the melting point was 171 to 173 °C.

In turn, `CC(NC(=O)c1cc(OCC(F)(F)F)ccc1OCC(F)(F)F)C1CCCCN1` (configuration not stated) came in with a melting point of 95 to 97 °C.

As for `CSc1ccc(NC(=O)Nc2cc(-c3c(-c4ccc(F)c(C)c4)nc4cccnn34)ccn2)cc1`, the melting point was in the range of 219 to 220 °C.

As for `COC1=NS(=O)(=O)N(C)C(Oc2ccc([N+](=O)[O-])cc2)=N1`, the melting point lay within 220 to 221 °C.

In the case of `CC(C)C(=O)NCCCn1c(CCO)nc2c(N)nc3ccccc3c21`, the melting point is 196 to 198 °C.

In the case of `Oc1nc2cc(Cl)c3nccnc3c2nc1O`, the melting point was above 300 °C.

In turn, `COc1ccc(C[C@@H](C(=O)[C@H](Cc2ccc(OC)c(OC)c2)N2C(=O)c3ccccc3C2=O)N2C(=O)c3ccccc3C2=O)cc1OC` yielded a melting point of 126 to 128 °C.

The molecule `OC1(CNCc2ccccc2)CCN(CCc2c[nH]c3ccc(-n4cnnc4)cc23)C1` (configuration not stated) came in with a melting point above 56 °C.

As to `Clc1ccc(-c2cncn3cnnc23)cc1`, the melting point lay within 193 to 195 °C.

On to `CC1(C)[C@@H](CS(=O)(=O)c2ccc(S(C)(=O)=O)cc2)CC[C@@]1(C)NCC(=O)N1CCC[C@H]1C#N`, for which the melting point lay in the range of 162 to 166 °C.

`COc1cc(OCC(=O)O)c(C)cc1SCc1cccc(-c2cccc(OC(F)(F)F)c2)c1` registered a melting point of 92 to 94 °C.

With `Cc1cccc(C)c1N(CCCCCCc1cccnc1)C(=O)C(C)N1C(=O)c2ccccc2C1=O` (configuration not stated), the melting point was in the range of 113 to 115 °C.

In turn, `Clc1ccc(-c2cnccn2)cc1` came in with a melting point of 77 to 77.5 °C.

Consider `Cc1ccc(-c2nc3ccccc3s2)nc1`, for which the melting point was 170 °C.

Consider `CC1(NC(=O)C(Br)CBr)COCOC1` (configuration not stated), for which the melting point was in the range of 115 to 119 °C.

For `CC1(C)CCC(C)(C)c2cc(C(=O)Nc3ccccc3)ccc21`, the melting point lay within 144 to 146 °C.

On to `CN(C)CC(O)c1cc(-c2ccccc2)on1` (configuration not stated), for which the melting point lay within 117 to 119 °C.

In general, melting point refers to the temperature of the solid-liquid transition.
